US10213428B2, “(4-((3R,4R)-3-methoxytetrahydro-pyran-4-ylamino)piperidin-1-yl)(5-methyl-6-(((2R,6S)-6-(p-tolyl)tetrahydro-2H-pyran-2-yl)methylamino)pyrimidin-4-yl)methanone citrate” (Centrexion Therapeutics Corporation, priority 2015, dated 2019)

What was measured:
[1] = Intravenous pharmacokinetics in dog; type: in vivo, beagle dogs; conditions: IV dose 5 μmol/kg, mean values
Excerpt: (§1) The pharmacokinetics of the test compound following single intravenous (IV) or oral (PO) doses were examined in • female BALB/c mice (average weight: 25 g) • male Wistar(Han) rats (average weight: 260 g) • male and female Göttingen Minipigs (average weight: 24 kg) • male beagle dogs (average weight: 15 kg) All non-rodent species were fasted overnight prior to dosing, while mice and rats had food and water available ad libitum. The p.o. dose of the compound was usually administered as suspension in 0.5% Natrosol or as a 0.5% Natrosol/0.015% Tween 80 suspension. For i.v. dosing purposes, the doses were applied as a solution in 0.9% NaCL, or as a solution containing 9.1% HP-beta Cyclodextrin in water.
(§2) Blood was collected by venous sampling and soaking of the blood in EDTA coated tubes. Samples were collected for up to 48 h after administration of the test compound. Plasma was then separated by centrifugation (5 min by approximately 9000 g at 4° C.). For determination of the test compound, plasma was transferred into PCR plates. All samples were stored at approximately −20° C. until bioanalytics. The test compound concentrations in plasma were determined by HPLC MS/MS. The lower limit of quantification was between 0.5 nmol/L and 1 nmol/L.

[2] = X-ray powder diffraction: crystallinity and polymorphism; type: physicochemical
Excerpt: X-ray powder diagrams were generated using a STOE-STADI P-diffractometer in transmission mode fitted with a MYTHEN-detector and a Cu-anode as X-ray source with monochromatic CuKα1 radiation (λ=1.54056 Å, 40 kV, 40 mA).

[3] = system: plasma protein; test: In vitro plasma protein binding (equilibrium dialysis), dog; type: in vitro ADME; conditions: 1.0 μM, dialysis 2 hours at 37° C.
Description: (§3) Dianorm Teflon dialysis cells (micro 0.2) are used. Each cell consists of a donor (i.e., buffer chamber) and an acceptor chamber (i.e., plasma chamber), separated by an ultrathin semipermeable membrane with a 5 kDa molecular weight cutoff. Stock solutions for each test compound are prepared in DMSO at 1 mM and diluted to a final concentration of 1.0 μM. Aliquots of 200 μL dialysis buffer (100 mM potassium phosphate, pH 7.4) are dispensed into the buffer chamber. Aliquots of 200 μL test compound dialysis solution are dispensed into the plasma chambers. Incubation is carried out for 2 hours under rotation at 37° C. Then, the dialysate is transferred into reaction tubes. The tubes for the buffer fraction contain 0.2 mL acetonitril/water (80/20 volume/volume). Aliquots of 25 μL of the plasma dialysate are transferred into deep well plates and mixed with 25 μL acetonitril/water (80/20 volume/volume), 25 μL buffer, 25 μL calibration solution and 25 μL Internal Standard solution. Protein precipitation is done by adding 200 μL acetonitrile. Aliquots of 50 μL of the buffer dialysate are transferred into deep well plates and mixed with 25 μL blank plasma, 25 μL Internal Standard solution and 200 μL acetonitril. Percent bound is calculated with the formula: % bound=(plasma concentration−buffer concentration/plasma concentration)×100.

[4] = as above; type: in vitro ADME; conditions: pH 7.4, dialysis 2 hours at 37° C., read-out: Fraction bound (converted)
Description: as §3

[5] = system: plasma protein; test: In vitro plasma protein binding (equilibrium dialysis), rat; type: in vitro ADME; conditions: 1.0 μM, dialysis 2 hours at 37° C.
Description: as §3

[6] = as above; type: in vitro ADME; conditions: pH 7.4, dialysis 2 hours at 37° C., read-out: Fraction bound (converted)
Description: as §3

[7] = system: hepatocytes; test: In vitro metabolic stability in hepatocyte incubations, mouse; type: in vitro ADME; conditions: Mouse hepatocytes, 1 μM
Description: (§4) Metabolic degradation of the test compound is assayed in a hepatocyte suspension. Hepatocytes are incubated in an appropriate buffer system. Following a (typically) 30 min preincubation in an incubator (37° C., 10% CO2) 5 μL of test compound solution (1 μM) are added into 395 μL hepatocyte suspension (cell density in the range 0.25-5 Mio cells/mL, typically 1 Mio cells/mL, final DMSO concentration 0.05%). The cells are incubated for six hours (incubator, orbital shaker) and samples (25 μL) are taken at 0, 0.5, 1, 2, 4 and 6 hours. Samples are transferred into acetonitrile and pelleted by centrifugation (5 min). The supernatant is transferred to a new 96-deepwell plate, evaporated under nitrogen and resuspended. Decline of parent compound is analyzed by HPLC-MS/MS. CLint is calculated as follows CL_INTRINSIC=Dose/AUC=(CO/CD)/(AUD+clast/k)×1000/60. […]

[8] = as above; type: in vitro ADME; conditions: hepatocytes (suspension); Mouse; predicted from hepatocyte CL intrinsic, well stirred model; read-out: CL, in vivo
Description: as §4

[9] = system: hepatocytes; test: In vitro metabolic stability in hepatocyte incubations, dog; type: in vitro ADME; conditions: Dog hepatocytes, 1 μM
Description: as §4

[10] = as above; type: in vitro ADME; conditions: hepatocytes (suspension); Dog; predicted from hepatocyte CL intrinsic, well stirred model; read-out: CL, in vivo
Description: as §4

[11] = Intravenous pharmacokinetics in rat; type: in vivo, Wistar(Han) rats; conditions: IV dose 5 μmol/kg, mean values
Excerpt: as §1, §2

[12] = system: hepatocytes; test: In vitro metabolic stability in hepatocyte incubations, rat; type: in vitro ADME; conditions: Rat hepatocytes, 1 μM
Description: as §4

[13] = as above; type: in vitro ADME; conditions: hepatocytes (suspension); Rat; predicted from hepatocyte CL intrinsic, well stirred model; read-out: CL, in vivo
Description: as §4

[14] = system: plasma protein; test: In vitro plasma protein binding (equilibrium dialysis), minipig; type: in vitro ADME; conditions: 1.0 μM, dialysis 2 hours at 37° C.
Description: as §3

[15] = as above; type: in vitro ADME; conditions: pH 7.4, dialysis 2 hours at 37° C., read-out: Fraction bound (converted)
Description: as §3

[16] = male, beagle, plasma, 5 umol/kg
[17] = male, Wistar(Han), plasma, 5 umol/kg

For CO[C@H]1COCC[C@H]1NC1CCN(C(=O)c2ncnc(NC[C@H]3CCC[C@@H](c4ccc(C)cc4)O3)c2C)CC1 [compound I, (4-((3R,4R)-3-methoxytetrahydro-pyran-4-ylamino)piperidin-1-yl)(5-methyl-6-(((2R,6S)-6-(p-tolyl)tetrahydro-2H-pyran-2-yl)methylamino)pyrimidin-4-yl)methanone], the MRTdisp [1] was 6.40 h, the AUC(0-inf) [1, 16] was 5.99 µM·h and the clearance [1, 16] was 14 mL/min/kg. The Vd ([1]; male, beagle, plasma, 5 umol/kg, read-out: Vss) was 4.94 L/kg, the crystallinity [2] was “amorphous material” and the Fraction unbound [3] was 29.6%. It also gave a fraction unbound at 2 h, 1 μM [4] of 0.296, a Fraction unbound [5] of 31.1% and a fraction unbound at 2 h, 1 μM [6] of 0.311. The “CL intrinsic, in vitro” value [7] was 16.4 μL/min/10e6 cells, the CLhep predicted at 1 μM [8] was 49 mL/min/kg and the “CL intrinsic, in vitro” value [9] was 3.15 μL/min/10e6 cells. For the same molecule, the CLhep predicted at 1 μM [10] was 14 mL/min/kg, the MRTdisp [11] was 1.49 h and the AUC(0-inf) [11, 17] was 1.49 µM·h. For the same molecule, the clearance [11, 17] was 56.1 mL/min/kg, the Vd ([11]; male, Wistar(Han), plasma, 5 umol/kg, read-out: Vss) was 5.04 L/kg and the “CL intrinsic, in vitro” value [12] was 8.77 μL/min/10e6 cells. The CLhep predicted at 1 μM [13] was 26 mL/min/kg, the Fraction unbound [14] was 39.2% and the fraction unbound at 2 h, 1 μM [15] was 0.392.
